According to PubChem BioAssay (NCI):
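These data come from cells grown in 96-well plates and exposed to compound for 48 hours at five concentrations. GI50: concentration for 50% inhibition of growth. At the TGI there is no net growth.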

Assays:
Assay in all cases: DTP human tumour cell line panel, 48 h
OVCAR-3 ovarian = test system: OVCAR-3 ovarian
NCI-H522 lung = test system: NCI-H522 lung
HT29 colon = test system: HT29 colon
SW-620 colon = test system: SW-620 colon
OVCAR-4 ovarian = test system: OVCAR-4 ovarian
RPMI-8226 leukemia = test system: RPMI-8226 leukemia
OVCAR-5 ovarian = test system: OVCAR-5 ovarian
BT-549 breast = test system: BT-549 breast
MCF7 breast = test system: MCF7 breast
U251 CNS = test system: U251 CNS
IGROV1 ovarian = test system: IGROV1 ovarian
DU-145 prostate = test system: DU-145 prostate
CCRF-CEM leukemia = test system: CCRF-CEM leukemia
NCI-H460 lung = test system: NCI-H460 lung
T-47D breast = test system: T-47D breast
UACC-257 melanoma = test system: UACC-257 melanoma
SF-268 CNS = test system: SF-268 CNS
SNB-19 CNS = test system: SNB-19 CNS
KM12 colon = test system: KM12 colon
NCI-H23 lung = test system: NCI-H23 lung
NCI/ADR-RES ovarian = test system: NCI/ADR-RES ovarian
EKVX NSCLC = test system: EKVX NSCLC
ACHN renal = test system: ACHN renal
SK-MEL-5 melanoma = test system: SK-MEL-5 melanoma
OVCAR-8 ovarian = test system: OVCAR-8 ovarian
A549 NSCLC = test system: A549 NSCLC
NCI-H226 lung = test system: NCI-H226 lung
UACC-62 melanoma = test system: UACC-62 melanoma
CAKI-1 renal = test system: CAKI-1 renal
SK-MEL-28 melanoma = test system: SK-MEL-28 melanoma
UO-31 renal = test system: UO-31 renal
COLO 205 colon = test system: COLO 205 colon
LOX IMVI melanoma = test system: LOX IMVI melanoma
SK-OV-3 ovarian = test system: SK-OV-3 ovarian
786-0 renal = test system: 786-0 renal
MDA-MB-435 = test system: MDA-MB-435
HOP-62 NSCLC = test system: HOP-62 NSCLC
M14 melanoma = test system: M14 melanoma
K-562 leukemia = test system: K-562 leukemia
PC-3 prostate = test system: PC-3 prostate
MDA-MB-231 breast = test system: MDA-MB-231 breast
SN12C renal = test system: SN12C renal
SF-295 CNS = test system: SF-295 CNS
SNB-75 CNS = test system: SNB-75 CNS
SK-MEL-2 melanoma = test system: SK-MEL-2 melanoma
HCT-116 colon = test system: HCT-116 colon
HS 578T breast = test system: HS 578T breast
TK-10 renal = test system: TK-10 renal
HCT-15 colon = test system: HCT-15 colon
HCC-2998 colon = test system: HCC-2998 colon
MOLT-4 leukemia = test system: MOLT-4 leukemia
HOP-92 NSCLC = test system: HOP-92 NSCLC
A498 renal = test system: A498 renal

CC(=O)c1ccc(Nc2cc(-n3nnc4ccccc43)nc3ccccc23)cc1
GI50 (OVCAR-3 ovarian): 14 µM
TGI (OVCAR-3 ovarian): 37.5 µM
GI50 (NCI-H522 lung): 35.4 µM
TGI (NCI-H522 lung): > 100 µM
GI50 (HT29 colon): 12.9 µM
TGI (HT29 colon): > 100 µM
GI50 (SW-620 colon): > 100 µM
TGI (SW-620 colon): > 100 µM
GI50 (OVCAR-4 ovarian): 10.7 µM
TGI (OVCAR-4 ovarian): 61.9 µM
GI50 (RPMI-8226 leukemia): 2.5 µM
TGI (RPMI-8226 leukemia): 14 µM
GI50 (OVCAR-5 ovarian): 26.2 µM
TGI (OVCAR-5 ovarian): > 100 µM
GI50 (BT-549 breast): 16 µM
TGI (BT-549 breast): 66.2 µM
GI50 (MCF7 breast): 36.3 µM
TGI (MCF7 breast): > 100 µM
GI50 (U251 CNS): 14.4 µM
TGI (U251 CNS): 44.1 µM
GI50 (IGROV1 ovarian): 55.7 µM
TGI (IGROV1 ovarian): > 100 µM
GI50 (DU-145 prostate): 14.6 µM
TGI (DU-145 prostate): 82 µM
GI50 (CCRF-CEM leukemia): 5.18 µM
TGI (CCRF-CEM leukemia): > 100 µM
GI50 (NCI-H460 lung): 29.1 µM
TGI (NCI-H460 lung): > 100 µM
GI50 (T-47D breast): 18.9 µM
TGI (T-47D breast): 87.1 µM
GI50 (UACC-257 melanoma): 45 µM
TGI (UACC-257 melanoma): > 100 µM
GI50 (SF-268 CNS): 25.1 µM
TGI (SF-268 CNS): > 100 µM
GI50 (SNB-19 CNS): 47.6 µM
TGI (SNB-19 CNS): > 100 µM
GI50 (KM12 colon): 4.16 µM
TGI (KM12 colon): 25.6 µM
GI50 (NCI-H23 lung): 15.8 µM
TGI (NCI-H23 lung): 72.6 µM
GI50 (NCI/ADR-RES ovarian): 12 µM
TGI (NCI/ADR-RES ovarian): 46 µM
GI50 (EKVX NSCLC): 9.41 µM
TGI (EKVX NSCLC): 67.4 µM
GI50 (ACHN renal): 13.2 µM
TGI (ACHN renal): 26.9 µM
GI50 (SK-MEL-5 melanoma): 26.6 µM
TGI (SK-MEL-5 melanoma): 75.4 µM
GI50 (OVCAR-8 ovarian): 7.83 µM
TGI (OVCAR-8 ovarian): 43.4 µM
GI50 (A549 NSCLC): 32.3 µM
TGI (A549 NSCLC): > 100 µM
GI50 (NCI-H226 lung): 14.8 µM
TGI (NCI-H226 lung): 59.4 µM
GI50 (UACC-62 melanoma): 14.5 µM
TGI (UACC-62 melanoma): 62.8 µM
GI50 (CAKI-1 renal): 13.2 µM
TGI (CAKI-1 renal): 35.2 µM
GI50 (SK-MEL-28 melanoma): 15.5 µM
TGI (SK-MEL-28 melanoma): > 100 µM
GI50 (UO-31 renal): 23 µM
TGI (UO-31 renal): > 100 µM
GI50 (COLO 205 colon): 30.6 µM
TGI (COLO 205 colon): > 100 µM
GI50 (LOX IMVI melanoma): 13.4 µM
TGI (LOX IMVI melanoma): > 100 µM
GI50 (SK-OV-3 ovarian): 20.5 µM
TGI (SK-OV-3 ovarian): 43.4 µM
GI50 (786-0 renal): 11.9 µM
TGI (786-0 renal): 30.1 µM
GI50 (MDA-MB-435): 19.7 µM
TGI (MDA-MB-435): 94.6 µM
GI50 (HOP-62 NSCLC): 4.51 µM
TGI (HOP-62 NSCLC): 18.2 µM
GI50 (M14 melanoma): 10.9 µM
TGI (M14 melanoma): 44.6 µM
GI50 (K-562 leukemia): > 100 µM
TGI (K-562 leukemia): > 100 µM
GI50 (PC-3 prostate): 13.9 µM
TGI (PC-3 prostate): 72.4 µM
GI50 (MDA-MB-231 breast): 4.41 µM
TGI (MDA-MB-231 breast): 35.7 µM
GI50 (SN12C renal): 6.24 µM
TGI (SN12C renal): 35.4 µM
GI50 (SF-295 CNS): 4.96 µM
TGI (SF-295 CNS): 13.6 µM
GI50 (SNB-75 CNS): 19.6 µM
TGI (SNB-75 CNS): 60.5 µM
GI50 (SK-MEL-2 melanoma): 27.6 µM
TGI (SK-MEL-2 melanoma): > 100 µM
GI50 (HCT-116 colon): 32.9 µM
TGI (HCT-116 colon): > 100 µM
GI50 (HS 578T breast): 9.02 µM
TGI (HS 578T breast): 28.8 µM
GI50 (TK-10 renal): 9.46 µM
TGI (TK-10 renal): 24.3 µM
GI50 (HCT-15 colon): > 100 µM
TGI (HCT-15 colon): > 100 µM

COc1cc(/C=C/c2cc(/C=C/c3ccc(O)c(OC)c3)n(C(N)=O)n2)ccc1O
GI50 (OVCAR-3 ovarian): 0.427 µM
TGI (OVCAR-3 ovarian): 2.19 µM
GI50 (NCI-H522 lung): 0.252 µM
TGI (NCI-H522 lung): 0.964 µM
GI50 (HT29 colon): 2.18 µM
TGI (HT29 colon): 5.28 µM
GI50 (SW-620 colon): 0.398 µM
TGI (SW-620 colon): 1.82 µM
GI50 (OVCAR-4 ovarian): 0.57 µM
TGI (OVCAR-4 ovarian): 5.03 µM
GI50 (OVCAR-5 ovarian): 1.76 µM
TGI (OVCAR-5 ovarian): > 100 µM
GI50 (BT-549 breast): 0.395 µM
TGI (BT-549 breast): 1.58 µM
GI50 (MCF7 breast): 0.314 µM
TGI (MCF7 breast): 1.45 µM
GI50 (U251 CNS): 0.526 µM
TGI (U251 CNS): 10.5 µM
GI50 (DU-145 prostate): 0.482 µM
TGI (DU-145 prostate): 1.63 µM
GI50 (CCRF-CEM leukemia): 0.295 µM
TGI (CCRF-CEM leukemia): > 100 µM
GI50 (NCI-H460 lung): 0.318 µM
TGI (NCI-H460 lung): 1.3 µM
GI50 (T-47D breast): 0.507 µM
TGI (T-47D breast): 3.68 µM
GI50 (UACC-257 melanoma): 1.53 µM
TGI (UACC-257 melanoma): 9.03 µM
GI50 (SF-268 CNS): 0.439 µM
TGI (SF-268 CNS): 4.83 µM
GI50 (SNB-19 CNS): 0.691 µM
GI50 (KM12 colon): 0.351 µM
TGI (KM12 colon): 1.86 µM
GI50 (HCC-2998 colon): 1.56 µM
TGI (HCC-2998 colon): 11.2 µM
GI50 (NCI-H23 lung): 0.647 µM
TGI (NCI-H23 lung): 3.53 µM
GI50 (MOLT-4 leukemia): 0.365 µM
TGI (MOLT-4 leukemia): > 100 µM
GI50 (HOP-92 NSCLC): 0.861 µM
TGI (HOP-92 NSCLC): 4.4 µM
GI50 (NCI/ADR-RES ovarian): 0.435 µM
TGI (NCI/ADR-RES ovarian): 4.44 µM
GI50 (ACHN renal): 0.342 µM
TGI (ACHN renal): 10.2 µM
GI50 (OVCAR-8 ovarian): 0.543 µM
TGI (OVCAR-8 ovarian): 22.8 µM
GI50 (A549 NSCLC): 0.491 µM
TGI (A549 NSCLC): 11.3 µM
GI50 (NCI-H226 lung): 1.38 µM
TGI (NCI-H226 lung): 4.4 µM
GI50 (CAKI-1 renal): 0.368 µM
TGI (CAKI-1 renal): 10 µM
GI50 (A498 renal): 1.12 µM
TGI (A498 renal): 3.48 µM
GI50 (SK-MEL-28 melanoma): 0.609 µM
TGI (SK-MEL-28 melanoma): 3.26 µM
GI50 (UO-31 renal): 0.37 µM
TGI (UO-31 renal): 1.69 µM
GI50 (COLO 205 colon): 2.36 µM
TGI (COLO 205 colon): 6.03 µM
GI50 (LOX IMVI melanoma): 0.493 µM
TGI (LOX IMVI melanoma): 2.75 µM
GI50 (SK-OV-3 ovarian): 0.392 µM
TGI (SK-OV-3 ovarian): 1.93 µM
GI50 (786-0 renal): 0.372 µM
TGI (786-0 renal): 1.37 µM
GI50 (MDA-MB-435): 0.102 µM
TGI (MDA-MB-435): 0.346 µM
GI50 (M14 melanoma): 0.283 µM
TGI (M14 melanoma): 1.03 µM
GI50 (K-562 leukemia): 0.35 µM
TGI (K-562 leukemia): > 100 µM
GI50 (PC-3 prostate): 0.439 µM
TGI (PC-3 prostate): 2.31 µM
GI50 (MDA-MB-231 breast): 0.655 µM
TGI (MDA-MB-231 breast): 12.8 µM
GI50 (SN12C renal): 0.585 µM
TGI (SN12C renal): 5.94 µM
GI50 (SNB-75 CNS): 0.311 µM
TGI (SNB-75 CNS): 1.26 µM
GI50 (SK-MEL-2 melanoma): 0.4 µM
TGI (SK-MEL-2 melanoma): 1.13 µM
GI50 (HCT-116 colon): 0.314 µM
TGI (HCT-116 colon): 1.11 µM
GI50 (HS 578T breast): 0.259 µM
TGI (HS 578T breast): 2.52 µM
GI50 (TK-10 renal): 1.3 µM
TGI (TK-10 renal): 4.73 µM
GI50 (HCT-15 colon): 0.312 µM
TGI (HCT-15 colon): 2.01 µM
